Data as given in paper PMC10599620, “Structure of a diatom photosystem II supercomplex containing a member of Lhcx family and dimeric FCPII” (Science Advances, 2023).

T1: Tp-Lhcf7 homodimer (Thalassiosira pseudonana, UniProt B8BX93)
T1 construct: native FCPII homodimer (Lhcf7_1, Lhcf7_2) within purified PSII-FCPII supercomplex
T1 sequence (B8BX93 31-194 limits assumed): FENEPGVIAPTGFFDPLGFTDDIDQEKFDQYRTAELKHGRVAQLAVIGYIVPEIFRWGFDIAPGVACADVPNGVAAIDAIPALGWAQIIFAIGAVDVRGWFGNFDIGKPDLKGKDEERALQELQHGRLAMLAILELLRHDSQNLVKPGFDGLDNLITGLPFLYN

T2: Tp-Lhcf11 (Thalassiosira pseudonana, UniProt B8BVI1)
T2 construct: native; Lhcf6-Lhcf11 heterodimer within purified PSII-FCPII supercomplex; with Fucoxanthin chlorophyll a/c light-harvesting protein Lhcf6
T2 sequence (B8BVI1 31-196): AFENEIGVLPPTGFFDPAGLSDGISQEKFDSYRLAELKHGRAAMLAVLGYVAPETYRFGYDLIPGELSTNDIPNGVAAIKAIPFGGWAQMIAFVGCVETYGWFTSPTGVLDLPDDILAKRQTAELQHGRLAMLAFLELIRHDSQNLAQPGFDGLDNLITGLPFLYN

T3: Tp-Lhcf7 (Thalassiosira pseudonana)
T3 chain: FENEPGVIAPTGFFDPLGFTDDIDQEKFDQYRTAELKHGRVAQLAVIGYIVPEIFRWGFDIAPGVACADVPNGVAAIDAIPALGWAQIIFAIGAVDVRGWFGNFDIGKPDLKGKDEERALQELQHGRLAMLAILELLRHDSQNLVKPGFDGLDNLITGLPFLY

B1: Tp-Lhcf7 (natural protein)
chain: T3 chain
modifications: binds 12-13 Chl a, 2 fucoxanthins, 2 diadinoxanthins; homodimer in the supercomplex; limits are the residues modelled in 8IWH (Table S4) / binds 12-13 Chl a, 2 fucoxanthins, 2 diadinoxanthins …

Experiments:
[1] = target: T1, Tp-Lhcf7 homodimer; assay: cryo-EM structure of native supercomplex, […] A; assay type: binding; details: sites 301 and 302
[2] = target: T2, Tp-Lhcf11; assay: cryo-EM structure of native supercomplex, local map […] A; assay type: binding; details: site 305
[3] = target: T3, Tp-Lhcf7; assay: cryo-EM structure; native PSII-FCPII supercomplex co-purified from T. pseudonana (cells grown under low light), in 50 mM Mes-NaOH pH 6.5, 10 mM NaCl, 5 mM CaCl2, 0.03% alpha-DDM, 2 mg Chl/ml; overall map 2.68 A, local map of the peripheral FCPII 3.19 A; details: both partners purified

Molecule | cryo-EM structure of native supercomplex, 2.68 A [1] | cryo-EM structure of native supercomplex, local map 3.19 A [2] | stoichiometry N [3]
CC(=O)O[C@H]1CC(C)(C)C(=C=C/C(C)=C/C=C/C(C)=C/C=C/C=C(C)/C=C/C=C(\C)C(=O)C[C@@]23O[C@]2(C)C[C@@H](O)CC3(C)C)[C@](C)(O)C1 [Fx] | There are two Fxs, Fx301 and Fx302, in Tp-Lhcf7 | two changes of pigment species at Chl c403 and Fx305 sites | –
B1 | – | – | 2
